Results as given in patent US20080234229A1, “Novel Therapeutic Agents for the Treatment of Cancer, Metabolic Diseases and Skin Disorders” (AUSPEX PHARMACEUTICALS, INC., priority 2005, published 2008).

Assays:
[1] = tested on: A375 cells; assay: A375 Tumor Cell Proliferation Assay (Alamar Blue); assay type: cell-based, human; settings: for TGI (Total Growth Inhibition) / IC50: A375 cells, 72 to 168 hours, reference data; for IC50: A-375, read-out: IC50 (50% Inhibitory Concentration); for growth inhibitory effect compared to Targretin: FIG. 1
Protocol: A375 cells (5,000 per well in 90% RPMI-1640 plus 10% Fetal Bovine Serum [FBS]) were pre-incubated in a black clear bottom 96-well plate in an atmosphere of 5% CO2 at 37° C. for 24 hours. Stock solutions of compounds in DMSO were diluted using a buffer and dilutions were added to each well. […] The final assay pH was 7.4. The cells were incubated in RPMI-1640 with each compound for an additional 72 to 168 hours. Alamar Blue was added and the plate was incubated for an additional 12 hours. Fluorescence intensity was measured using a Gemini plate reader with excitation at 530 nm and emission at 590 nm. A decrease of 50 percent or more (≧50%) in fluorescence intensity relative to vehicle treated controls is an indication of significant anti-cancer activity.
TGI (Total Growth Inhibition): Test compound concentration where the increase in number or mass of cells after 72 to 168 hours is reduced to equal that at time t=0.

[2] = tested on: SW-480 cells; assay: SW-480 Tumor Cell Proliferation Assay (Alamar Blue); assay type: cell-based; settings: human SW480 carcinoma cells; for growth inhibitory effect compared to Targretin: FIG. 3; for growth inhibitory effect in the presence of Irinotican: varying concentrations, combination with Irinotican, FIG. 6 and 7
Protocol: SW-480 cells (4×10^3/well in 90% EMEM medium plus 2 mM glutamine, 1 mM pyruvate, 0.1 mM non-essential amino acids and 10% Fetal Bovine Serum [FBS]), are pre-incubated in 96-well plates in an atmosphere of 5% CO2 at 37° C. for 24 hours. Test compounds and/or vehicle is then added to each well with a final concentration of 0.5% DMSO, pH 7.4 in EMEM for an additional 72 hours. After a further 6-hour incubation in the presence of Alamar Blue, fluorescence intensity is measured using a Gemini plate reader with excitation at 530 nm and emission at 590 nm.

[3] = tested on: SKMES cells; assay: SKMES Tumor Cell Proliferation Assay (Alamar Blue); assay type: cell-based; settings: human SKMES carcinoma cells; for growth inhibitory effect compared to Targretin: FIG. 2
Protocol: SKMES cells (8×10^3/well in 90% RPMI-1640 medium plus 2 mM glutamine, 10 mM HEPES and 10% Fetal Bovine Serum [FBS]), are pre-incubated in 96-well plates in an atmosphere of 5% CO2 at 37° C. for 24 hours. Test compounds and/or vehicle is then added to each well with a final concentration of 0.5% DMSO, pH 7.4 in RPMI-1640 for an additional 72 hours. After a further 150 minutes incubation in the presence of Alamar Blue, fluorescence intensity is measured using a Gemini plate reader with excitation at 530 nm and emission at […].

Structure (SMILES) | TGI (Total Growth Inhibition) [1] [µM] | IC50 ([1]; Homo sapiens) [µM] | CC50 ([1]; Homo sapiens, A-375, read-out: LC50 (50% Lethal Concentration)) [µM] | growth inhibitory effect compared to Targretin ([1]; human A375 carcinoma cells) | growth inhibitory effect compared to Targretin [2] | growth inhibitory effect in the presence of Irinotican [2] | growth inhibitory effect compared to Targretin [3] | growth inhibitory effect in the presence of Taxol ([1]; human A375 carcinoma cells, varying concentrations, combination with Taxol, FIG. 5) | growth inhibitory effect in the presence of Taxol ([3]; varying concentrations, combination with Taxol, FIG. 4)
COc1cccc2c1C(=O)c1c(O)c3c(c(O)c1C2=O)C[C@@](O)(C(=O)CO)C[C@@H]3O[C@H]1C[C@H](N)[C@H](O)[C@H](C)O1 [Doxorubicin] | 0.3 | 0.19 | 8 | – | – | – | – | – | –
C=C(c1ccc(B2OC(C)(C)C(C)(C)O2)cc1)c1cc2c(cc1C)C(C)(C)CCC2(C)C [Example 4, 4,4,5,5-Tetramethyl-2-{4-[1-(3,5,5,8,8-pentamethyl-5,6,7,8-tetrahydro-naphthalen-2-yl)-vinyl]-phenyl}-[1,3,2]dioxaborolane] | – | – | – | enhanced activity | enhanced activity | synergism | enhanced activity | – | –
C=C(c1ccc(B(O)O)cc1)c1cc2c(cc1C)C(C)(C)CCC2(C)C [Example 5, 4-[1-(3,5,5,8,8-Pentamethyl-5,6,7,8-tetrahydro-naphthalen-2-yl)-vinyl]-phenylboronic acid] | – | – | – | enhanced activity | enhanced activity | synergism | enhanced activity | synergism | synergism
CO[C@@]12[C@H](COC(N)=O)C3=C(C(=O)C(C)=C(N)C3=O)N1C[C@@H]1N[C@@H]12 [Mitomycin] | 8 | 4.2 | – | – | – | – | – | – | –
